IC50 data for nine compounds are collected here from patent publication US5140011A, “Amino acid derivatives which have renin inhibiting activity” (Hoffmann-La Roche, Inc., priority 1989, dated 1992).

Structures are written as SMILES.

The target in the test is T1, human renin (Homo sapiens, UniProt P00797).
T1 sequence (P00797 67-406): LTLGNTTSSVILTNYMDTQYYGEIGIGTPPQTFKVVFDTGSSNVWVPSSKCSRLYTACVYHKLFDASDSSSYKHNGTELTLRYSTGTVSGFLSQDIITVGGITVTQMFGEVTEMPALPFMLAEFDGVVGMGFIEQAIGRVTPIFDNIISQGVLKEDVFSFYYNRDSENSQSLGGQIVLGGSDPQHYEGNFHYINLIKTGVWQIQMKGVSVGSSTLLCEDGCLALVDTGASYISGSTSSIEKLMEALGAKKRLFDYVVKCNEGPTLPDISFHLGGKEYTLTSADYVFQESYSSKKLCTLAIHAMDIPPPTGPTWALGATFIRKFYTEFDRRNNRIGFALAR
As to the kind of experiment: In vitro test with pure human renin. The test is classed as biochemical. Particulars: human tetradecapeptide renin substrate (hTD), pH 7.4, 3 hours at 37° C. vs 4° C., angiotensin I measured via RIA. As for the experimental part: In vitro test with pure human renin
The test is carried out in Eppendorf test tubes. The incubation mixture consists of (1) 100 μl of human renin in buffer A (0.1M sodium phosphate solution, pH 7.4, containing 0.1% bovine serum albumin, 0.1% sodium azide and 1 mM ethylenediaminetetraacetic acid), sufficient for a renin activity of 2-3 ng of angiotensin I/ml/hr.; (2) 145 μl of buffer A; (3) 30 μl of a 10 μM human tetradecapeptide renin substrate (hTD) in 10 mM hydrochloric acid; (4) 15 μl of dimethyl sulphoxide with or without inhibitor and (5) 10 μl of a 0.03 molar solution of hydroxyquinoline sulphate in water.
The samples are incubated for 3 hours at 37° C. or 4° C. in triplicate. 2×100 μl samples per experimental test tube are used in order to measure the production of angiotensin I via RIA (standard radioimmunoassay; clinical assay solid phase kit). Cross reactivities of the antibody used in the RIA are: angiotensin I 100%; angiotensin II 0.0013%; hTD (angiotensin I-Val-Ile-His-Ser-OH) 0.09%. The production of angiotensin I is determined by the difference between the experiment at 37° C. and that at 4° C.
The following controls are carried out:
(a) Incubation of hTD samples without renin and without inhibitor at 37° C. and 4° C. The difference between these two values gives the base value of angiotensin I production.
(b) Incubation of hTD samples with renin, but without inhibitor at 37° C. and 4° C. The difference between these values give the maximal value of angiotensin I production.
In each sample the base value of the angiotensin I production is subtracted from the angiotensin I production which is determined. The difference between the maximal value and the base value gives the value of the maximal substrate hydrolysis (=100%) by renin.
The results are given as IC50 values which denote that concentration of the inhibitor at which the enzymatic activity is inhibited by 50%. The IC50 values are determined from a linear regression curve from a logit-log plot.

Consider `CCCCNC(=O)C[C@@H](C[C@H](O)[C@H](CC1CCCCC1)NC(=O)[C@H](Cc1c[nH]cn1)NC(=O)[C@H](Cc1ccccc1)NC(=O)OC(C)(C)C)C(C)C` [B, t-butyl [(S)-α-[[(S)-1-[[(1S,2S,4R)-4-[(butylcarbamoyl)methyl]-1-(cyclohexylmethyl)-2-hydroxy-5-methylhexyl]carbamoyl]-2-imidazol-4-ylethyl]carbamoyl]phenethyl]carbamate], for which the IC50 – broadly, the concentration needed to halve the response being measured – came out at 9 nM.
Take `CCC(=O)OCC[C@@H](C[C@H](O)[C@H](CC1CCCCC1)NC(=O)[C@H](Cc1c[nH]cn1)NC(=O)[C@H](Cc1ccccc1)NC(=O)OC(C)(C)C)C(C)C` [E, t-butyl [(S)-α-[[(S)-1-[[(1S,2S,4S)-1-(cyclohexylmethyl)-2-hydroxy-4-isopropyl-6-(propionyloxy)hexyl]carbamoyl]-2-imidazol-4-ylethyl]carbamoyl]phenethyl]carbamate]: the half-inhibitory concentration (IC50) was found to be 9 nM.
In the case of `CCCCNC(=O)C[C@@H](C[C@H](O)[C@H](CC1CCCCC1)NC(=O)[C@H](Cc1c[nH]cn1)NC(=O)[C@@H](CC(=O)C(C)(C)C)Cc1ccccc1)C(C)C` [A, (S)-N-[(1S,2S,4R)-4-[(Butylcarbamoyl)methyl]-1-(cyclohexylmethyl)-2-hydroxy-5-methylhexyl]-α-[(R)-α-(3,3-dimethyl-2-oxobutyl)hydrocinnamamido]imidazole-4-propionamide], the IC50 is 3 nM.
As to `CC(C)C(CC(O)C(CC1CCCCC1)NC(=O)C(Cc1c[nH]cn1)NC(=O)C(Cc1ccccc1)NC(=O)C1CCCN1C(=O)OC(C)(C)C)C(O)CNCCc1ccccc1` (single isomer, unassigned) [H, (2R or S,3S,5S,6S)-6-(Boc-D-Pro-Phe-His-NH)-7-cyclohexyl-3-isopropyl-1-(phenethylamino)-2,5-heptanediol], the concentration for half-maximal inhibition (IC50) is 4 nM.
The compound `CC(C)[C@@H](/C=C/C(=O)NCc1ccccn1)C[C@H](O)[C@H](CC1CCCCC1)NC(=O)[C@H](Cc1c[nH]cn1)NC(=O)[C@@H](CC(=O)C(C)(C)C)Cc1ccccc1` [D, (S)-N-[(1S,2S,4S,E)-1-(cyclohexylmethyl)-2-hydroxy-4-isopropyl-6-[(2-pyridylmethyl)carbamoyl]-5-hexenyl]-α-[(R)-α-(3,3-dimethyl-2-oxobutyl)hydrocinnamamido]imidazole-4-propionamide] displayed an IC50 of 13 nM.
In the case of `CC(C)[C@@H](CCOC(=O)C(C)(C)C)C[C@H](O)[C@H](CC1CCCCC1)NC(=O)C(Cc1c[nH]cn1)NC(=O)[C@H](Cc1ccccc1)NC(=O)[C@H]1CCCN1C(=O)OC(C)(C)C` (mixture of isomers) [F, t-butyl (R)-2-[[(S)-α-[[(R and S)-1-[[(1S,2S,4S)-1-(cyclohexylmethyl]-2-hydroxy-4-isopropyl-6-(pivaloyloxy)hexyl]carbamoyl]-2-imidazol-4-ylethyl]carbamoyl]phenethyl]carbamoyl]-1-pyrrolidinecarboxylate] it was 10 nM; in that of `CCCCCC(=O)[C@@H](C[C@H](O)[C@H](CC1CCCCC1)NC(=O)[C@H](Cc1c[nH]cn1)NC(=O)[C@@H](CC(=O)C(C)(C)C)Cc1ccccc1)C(C)C` [C, (S)-N-[(1S,2S,4S)-1-(cyclohexylmethyl)-2-hydroxy-4-isopropyl-5-oxodecyl]-α-[(R)-α-(3,3-dimethyl-2-oxobutyl]hydrocinnamamido]imidazole-4-propionamide], 7 nM.
On to `CC(C)C(CC(O)C(CC1CCCCC1)NC(=O)C(Cc1c[nH]cn1)NC(=O)C(Cc1ccccc1)NC(=O)C1CCCN1C(=O)OC(C)(C)C)C(O)CNCCc1ccccc1` (single isomer, unassigned) [G, (2S or R,3S,5S,6S)-6-(Boc-D-Pro-Phe-His-NH)-7-cyclohexyl-3-isopropyl-1-(phenethylamino)-2,5-heptanediol], for which half-maximal inhibition (IC50) required 11 nM.
Take `CC(C)C(CC(O)C(CC1CCCCC1)NC(=O)C(Cc1c[nH]cn1)NC(=O)C(Cc1ccccc1)NC(=O)C1CCCN1C(=O)OC(C)(C)C)C(O)CNCc1ccccn1` (racemic) [I, (2RS,3S,5S,6S)-6-(Boc-D-Pro-Phe-His-NH)-7-cyclohexyl-3-isopropyl-1-[(2-pyridylmethyl)amino]-2,5-heptanediol]: the IC50 is 8 nM.
